Measurements reported in patent publication US9469642B2, “Purinone compounds as kinase inhibitors” (Pharmacyclics LLC, priority 2012, dated 2016).

Columns and labels:
Format in all cases: biochemical
BTK = biological target: T1, BTK (Homo sapiens, UniProt Q06187); test: Btk in vitro inhibitory activity (kinase assay by one of Methods A, B or C)
T1 construct: purified from insect cells as a full-length construct containing a N-terminal 6×-His tag; His6 (N); host or cells: insect cells (baculovirus Sf21)
T1 sequence (Q06187 whole entry): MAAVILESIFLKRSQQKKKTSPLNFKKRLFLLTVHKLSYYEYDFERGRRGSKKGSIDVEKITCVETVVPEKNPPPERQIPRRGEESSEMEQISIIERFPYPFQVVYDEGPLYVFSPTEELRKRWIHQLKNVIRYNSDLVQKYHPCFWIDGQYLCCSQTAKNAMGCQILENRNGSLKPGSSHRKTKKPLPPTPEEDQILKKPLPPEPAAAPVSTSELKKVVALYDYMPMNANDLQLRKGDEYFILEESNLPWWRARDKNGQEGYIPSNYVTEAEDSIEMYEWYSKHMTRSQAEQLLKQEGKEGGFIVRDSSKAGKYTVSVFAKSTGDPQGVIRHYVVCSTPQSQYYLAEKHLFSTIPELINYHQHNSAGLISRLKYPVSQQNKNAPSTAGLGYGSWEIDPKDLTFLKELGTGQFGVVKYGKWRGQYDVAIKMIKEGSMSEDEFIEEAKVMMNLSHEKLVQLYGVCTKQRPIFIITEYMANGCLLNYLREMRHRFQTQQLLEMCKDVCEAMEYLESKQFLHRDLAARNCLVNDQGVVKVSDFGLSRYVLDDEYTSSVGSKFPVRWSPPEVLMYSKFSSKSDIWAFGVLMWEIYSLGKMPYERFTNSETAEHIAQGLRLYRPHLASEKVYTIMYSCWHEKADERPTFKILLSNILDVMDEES
How it was run: (§1)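 BTK (0.5 nM) and LCK (6 nM) by TR-FRET, ATP at Km, biotinylated peptide, pH 7.4, 1 h; Ki(app) converted to IC50. Alternatively, full-length His6-BTK (1 nM) by mobility shift, 16 μM ATP (Km), 1 μM FAM peptide, pH 7.5, 1 h; IC50 from 12-point 4-parameter fit. Radiometric filter-binding option also used.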

EGFR = EGFR (Homo sapiens, UniProt P00533); test: Kinase panel inhibition, EGFR (one of the methods of Example 76a, 76b, 76c)
Sequence of EGFR (P00533 25-1210, species assumed): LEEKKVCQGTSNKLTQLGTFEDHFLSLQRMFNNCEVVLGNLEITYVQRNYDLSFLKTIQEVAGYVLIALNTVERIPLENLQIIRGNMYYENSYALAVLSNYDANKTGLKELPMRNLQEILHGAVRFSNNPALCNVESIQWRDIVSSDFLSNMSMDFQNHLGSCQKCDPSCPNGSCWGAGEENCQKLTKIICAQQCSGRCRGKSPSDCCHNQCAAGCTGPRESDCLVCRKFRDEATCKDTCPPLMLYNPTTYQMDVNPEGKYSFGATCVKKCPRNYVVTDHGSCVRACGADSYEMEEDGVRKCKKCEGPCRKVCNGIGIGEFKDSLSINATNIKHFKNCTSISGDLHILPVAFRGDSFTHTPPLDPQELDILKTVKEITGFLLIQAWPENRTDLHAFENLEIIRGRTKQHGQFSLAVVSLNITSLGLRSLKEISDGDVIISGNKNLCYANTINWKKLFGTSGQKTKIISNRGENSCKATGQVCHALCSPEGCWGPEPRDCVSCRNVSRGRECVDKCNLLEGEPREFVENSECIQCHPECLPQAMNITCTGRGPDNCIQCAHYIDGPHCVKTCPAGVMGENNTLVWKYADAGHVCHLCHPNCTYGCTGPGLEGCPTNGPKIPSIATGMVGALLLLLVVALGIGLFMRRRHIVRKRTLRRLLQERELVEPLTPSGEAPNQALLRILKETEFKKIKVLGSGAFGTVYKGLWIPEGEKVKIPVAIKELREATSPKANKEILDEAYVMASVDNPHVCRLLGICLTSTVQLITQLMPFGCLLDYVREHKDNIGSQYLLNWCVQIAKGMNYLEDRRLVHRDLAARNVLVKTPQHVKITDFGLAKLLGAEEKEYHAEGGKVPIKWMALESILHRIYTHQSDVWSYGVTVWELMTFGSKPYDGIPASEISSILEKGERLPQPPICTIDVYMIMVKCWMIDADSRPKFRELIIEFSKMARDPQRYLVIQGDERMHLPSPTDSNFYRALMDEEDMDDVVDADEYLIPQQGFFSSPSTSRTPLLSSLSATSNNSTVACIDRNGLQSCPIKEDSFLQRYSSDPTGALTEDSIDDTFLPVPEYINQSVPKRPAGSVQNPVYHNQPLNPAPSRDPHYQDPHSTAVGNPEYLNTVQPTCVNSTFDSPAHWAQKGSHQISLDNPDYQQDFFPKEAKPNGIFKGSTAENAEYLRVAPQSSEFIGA
How it was run: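 Kinase activity was measured by TR-FRET in 50 μL reactions in 96-well plates. Enzyme, inhibitor, ATP at its Km and a biotinylated peptide substrate were incubated for one hour at pH 7.4 in buffer containing 20 mM Tris, 50 mM NaCl, MgCl2, MnCl2, 1 mM DTT, 0.1 mM EDTA, 0.01% bovine serum albumin, 0.005% Tween-20 and 10% DMSO. Reactions were stopped with EDTA in Lance buffer. Streptavidin-APC and Eu-labeled p-Tyr100 antibody were added for one hour. The 665/615 nm emission ratio gave activity. IC50 was derived from Ki(app) fitted with BatchKi.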

LCK = LCK (Homo sapiens, UniProt P06239); test: Kinase panel inhibition, LCK (one of the methods of Example 76a, 76b, 76c)
Sequence of LCK (P06239 whole entry, species assumed): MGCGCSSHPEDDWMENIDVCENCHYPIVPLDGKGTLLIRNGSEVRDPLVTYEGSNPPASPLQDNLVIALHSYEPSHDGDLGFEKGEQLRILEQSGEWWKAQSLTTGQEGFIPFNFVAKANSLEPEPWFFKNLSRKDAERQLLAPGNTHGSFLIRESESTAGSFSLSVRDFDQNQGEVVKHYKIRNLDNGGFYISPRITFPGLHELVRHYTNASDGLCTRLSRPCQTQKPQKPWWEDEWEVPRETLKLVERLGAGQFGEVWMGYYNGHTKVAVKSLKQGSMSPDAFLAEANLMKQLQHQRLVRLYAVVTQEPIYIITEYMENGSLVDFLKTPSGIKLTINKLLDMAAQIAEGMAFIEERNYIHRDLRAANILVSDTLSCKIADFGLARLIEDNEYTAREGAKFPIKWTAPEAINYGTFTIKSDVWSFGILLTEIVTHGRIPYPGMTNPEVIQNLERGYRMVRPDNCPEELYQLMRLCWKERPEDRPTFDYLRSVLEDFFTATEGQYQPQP
How it was run: as §1

SMILES	IC50 (BTK) [nM]	IC50 (EGFR) [nM]	IC50 (LCK) [nM]
COc1cc(-n2c(=O)n(-c3cccc(N(C)C(=O)/C=C/CN(C)C4CC4)c3)c3ncnc(N)c32)ccc1OCc1ccccc1 [Compound 295, (E)-N-(3-(6-amino-7-(4-(benzyloxy)-3-methoxyphenyl)-8-oxo-7H-purin-9(8H)-yl)phenyl)-4-(cyclopropyl(methyl)amino)-N-methylbut-2-enamide]	< 100	> 10000	> 10000
CN(C/C=C/C(=O)N1CCOc2ccc(-n3c(=O)n(-c4ccc(Oc5cccc(F)c5)cc4)c4c(N)ncnc43)cc21)C1CC1 [Compound 306, (E)-6-amino-9-(4-(4-(cyclopropyl(methyl)amino)but-2-enoyl)-3,4-dihydro-2H-benzo[b][1,4]oxazin-6-yl)-7-(4-(3-fluorophenoxy)phenyl)-7H-purin-8(9H)-one]	< 100	100 to 1000	1000 to 10000
COc1ccc(-n2c(=O)n(-c3ccc(Oc4cccc(F)c4)cc3)c3c(N)ncnc32)cc1N(C)C(=O)/C=C/CN(C)C1CC1 [Compound 312, (E)-N-(5-(6-amino-7-(4-(3-fluorophenoxy)phenyl)-8-oxo-7H-purin-9(8H)-yl)-2-methoxyphenyl)-4-(cyclopropyl(methyl)amino)-N-methylbut-2-enamide]	< 100	> 10000	> 10000
COc1ccc(-n2c(=O)n(-c3ccc(Oc4ccccc4)cc3)c3c(N)ncnc32)cc1N(C)C(=O)/C=C/CN(C)[C@H]1CCOC1 [Compound 313, (S,E)-N-(5-(6-amino-8-oxo-7-(4-phenoxyphenyl)-7H-purin-9(8H)-yl)-2-methoxyphenyl)-N-methyl-4-(methyl(tetrahydrofuran-3-yl)amino)but-2-enamide]	< 100	1000 to 10000	1000 to 10000

Further lines, results first:

IC50 (BTK) [nM]	IC50 (EGFR) [nM]	IC50 (LCK) [nM]	SMILES
< 100	1000 to 10000	1000 to 10000	Cc1cc(Oc2ccccc2)ccc1-n1c(=O)n(-c2cccc(N(C)C(=O)/C=C/CN(C)C3CC3)c2)c2ncnc(N)c21 [Compound 290, (E)-N-(3-(6-amino-7-(2-methyl-4-phenoxyphenyl)-8-oxo-7H-purin-9(8H)-yl)phenyl)-4-(cyclopropyl(methyl)amino)-N-methylbut-2-enamide]
< 100	100 to 1000	1000 to 10000	Cc1cc(NC(=O)/C=C/CN(C)C2CC2)cc(-n2c(=O)n(-c3ccc(Oc4ccccc4)cc3C)c3c(N)ncnc32)c1 [Compound 298, (E)-N-(3-(6-amino-7-(2-methyl-4-phenoxyphenyl)-8-oxo-7H-purin-9(8H)-yl)-5-methylphenyl)-4-(cyclopropyl(methyl)amino)but-2-enamide]
< 100	100 to 1000	1000 to 10000	COc1cc(NC(=O)/C=C/CN(C)C2CC2)cc(-n2c(=O)n(-c3ccc(Oc4ccccc4)cc3C)c3c(N)ncnc32)c1 [Compound 301, (E)-N-(3-(6-amino-7-(2-methyl-4-phenoxyphenyl)-8-oxo-7H-purin-9(8H)-yl)-5-methoxyphenyl)-4-(cyclopropyl(methyl)amino)but-2-enamide]
< 100	1000 to 10000	1000 to 10000	CN(C(=O)/C=C/CN(C)[C@H]1CCOC1)c1cccc(-n2c(=O)n(-c3ccc(Oc4cccc(F)c4)cc3)c3c(N)ncnc32)c1 [Compound 309, (S,E)-N-(3-(6-amino-7-(4-(3-fluorophenoxy)phenyl)-8-oxo-7H-purin-9(8H)-yl)phenyl)-N-methyl-4-(methyl(tetrahydrofuran-3-yl)amino)but-2-enamide]
< 100	100 to 1000	1000 to 10000	CN(C/C=C/C(=O)Nc1cccc(-n2c(=O)n(-c3ccc(Oc4cccc(F)c4)cc3)c3c(N)ncnc32)c1)[C@H]1CCOC1 [Compound 316, (S,E)-N-(3-(6-amino-7-(4-(3-fluorophenoxy)phenyl)-8-oxo-7H-purin-9(8H)-yl)phenyl)-4-(methyl(tetrahydrofuran-3-yl)amino)but-2-enamide]
